Source: patent US8329645B2, “Polymyxin derivatives and uses thereof” (priority 2008, dated 2012)
“And” between values parts separate entries of the source, which are not always exact repeats. Identical values can stand only once.

Experiments:
[1] = tested on: Acinetobacter baumannii ATCC 19606; assay: Growth inhibition around wells on LB agar plates; type: cell-based; conditions: A. baumannii ATCC 19606
E. coli IH3080 [2] = assay: Growth inhibition around wells on LB agar plates; type: cell-based, Escherichia coli; conditions: 10 μg of compound per well
In short: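 Growth inhibition of encapsulated E. coli IH3080 (K1:O018) was assessed on LB agar plates. A suspension of about 10^8 cells/ml in 0.9% NaCl, made from an overnight LB agar culture, was spread across the plate surface and the excess removed. After drying, 2 mm wells were drilled, with 0.9% NaCl as control. Following 18 h at 37° C., inhibition zone diameters around wells were converted to areas in square mm.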

C. freundii ATCC8090 = assay: Growth inhibition around wells on LB agar plates; type: cell-based, Citrobacter freundii
Description: (§1) From an overnight-grown culture of IH3080 on LB agar, a suspension of approx. 10^8 cells/ml was prepared in 0.9% NaCl. Aliquots of this suspension were then pipetted on the agar plates and the plates were gently shaken to spread the suspension evenly on the entire surface of the plate. Thereafter, the unabsorbed part of the suspension was removed by using a Pasteur pipette. After the surface had dried, small wells (diameter, 2 mm) were drilled on the plates (five wells per plate) by using a sterile sharp-edged narrow metal tube, single-use pipette tip, and vacuum suction. An alternative method used a swab to spread the inoculum. Samples (4 μl and 10 μl) of the peptide solution in 0.9% NaCl (at concentrations of 1 μg/ml and 0.1 μg/ml) were then pipetted to the wells and the sample fluids were allowed to absorb. Controls included 0.9% NaCl solution without the compound to be tested. The plates were then incubated for 18 h at 37° C. whereafter the diameters of growth inhibition zones around each well were measured; the diameter of the well itself was not reduced. Finally, the diameters were converted to surface areas of growth inhibition (in square mm).
(§2) The susceptibility of eleven Gram-negative bacterial strains (nine different species) to NAB734 and polymyxin B was compared by using the susceptibility determination method described in Example 2. The strains included those belonging to the species of Serratia marcescens and Proteus mirabilis, both species generally known to be resistant to polymyxin. Furthermore, the susceptibility determination was also performed by using the Gram-positive bacterium, Staphylococcus aureus, also generally known to be polymyxin-resistant. Ten of the strains originated from ATCC (American Type Culture Collection, Manassas, Va., U.S.A.), and one from CCUG (Culture Collection of University of Gothenburg, Sweden). The source of E. coli IH3080 has been described in Example 2. Polymyxin B sulfate was from Sigma-Aldrich (St. Louis, Mo., USA).

[3] = tested on: Ps. aeruginosa ATCC 27853; assay: Sensitization to rifampin: growth inhibition around wells on LB plates containing rifampin; type: cell-based, Pseudomonas aeruginosa; conditions: 4 μg
P. mirabilis ATCC29906 = assay: Growth inhibition around wells on LB agar plates; type: cell-based, Proteus mirabilis
Description: as §1, §2

K. pneumoniae CCUG45421 = assay: Growth inhibition around wells on LB agar plates; type: cell-based, Klebsiella pneumoniae
Description: as §1, §2

K. pneumoniae ATCC13883 [4] = assay: Growth inhibition around wells on LB agar plates; type: cell-based, Klebsiella pneumoniae
Description: as §1, §2

E. coli ATCC25922 [5] = assay: Growth inhibition around wells on LB agar plates; type: cell-based, Escherichia coli
Description: as §1, §2

E. cloacae ATCC23355 [6] = assay: Growth inhibition around wells on LB agar plates; type: cell-based, Enterobacter cloacae
Description: as §1, §2

S. aureus ATCC 25923 = assay: Growth inhibition around wells on LB agar plates; type: cell-based, Staphylococcus aureus
Description: as §1, §2

S. marcescens ATCC8100 = assay: Growth inhibition around wells on LB agar plates; type: cell-based, Serratia marcescens
Description: as §1, §2

A. baumannii ATCC 19606 = assay: Sensitization to rifampin: growth inhibition around wells on LB plates containing rifampin; type: cell-based, Acinetobacter baumannii; conditions: 4 μg
E. coli IH3080 [7] = assay: as above; type: cell-based, Escherichia coli; conditions: 4 μg of compound
K. oxytoca ATCC13182 = assay: Growth inhibition around wells on LB agar plates; type: cell-based, Klebsiella oxytoca
Description: as §1, §2

[8] = tested on: Pseudomonas aeruginosa ATCC 27853; assay: Growth inhibition around wells on LB agar plates; type: cell-based; conditions: Ps. aeruginosa ATCC 27853
In short: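 Activity against Pseudomonas aeruginosa ATCC 27853 was assessed by agar well diffusion on LB plates. A suspension of about 10^8 cells/ml in 0.9% NaCl was spread over the agar and the excess removed. Once the surface had dried, 2 mm wells were drilled and filled with peptide dissolved in 0.9% NaCl. Plates were incubated 18 h at 37° C, and inhibition zone diameters were converted to areas in square mm.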

E. coli IH3080 (K1:O18) = assay: Experimental E. coli peritonitis model in mice (Example 12); type: in vivo
Description: A suspension of E. coli IH3080 (K1:O18) in saline (0.9% NaCl) was prepared from an overnight culture on a blood agar plate (Statens Serum Institut, Copenhagen, Denmark). All mice (female NMR1 from Harlan Scandinavia, Allerød, Denmark; weight, 25-30 g) were inoculated intraperitoneally with 0.5 ml of the suspension containing 0.96×10^6 CFU per ml in the lateral lower quadrant of the abdomen. At 1 h, the CFU count was determined from three mice and the remaining mice (four mice per group) were treated with a subcutaneous injection of 0.2 ml of erythromycin solution in saline (corresponding to 5 mg/kg body weight) or NAB7061 solution in saline (corresponding to 5 mg/kg body weight), or both erythromycin and NAB7061 (corresponding to 5 mg/kg body weight of both drugs; given at two separate sites). Control group received two 0.2 ml injections of saline. At 4.5 h postinfection, all mice were anaesthetized with CO2 and sacrificed. Sterile saline (2 ml) was injected intraperitoneally and the abdomen was gently massaged before it was opened and the fluid sampled. Appropriate dilutions of the fluid were plated on blood agar plates, the plates were incubated overnight, and the colonies were counted.

E. coli IH3080 [9] = assay: E-test MIC with or without NAB7061 (4 μg/ml), Mueller-Hinton agar; type: cell-based, Escherichia coli
Description: (§3) MICs were determined by using E-strips (Biodisk Ltd., Solna, Sweden) according to the manufacturer's instructions.
(§4) The strains originated from ATCC (11 strains), CCUG (11 strains), and NCTC (The National Collection of Type Cultures, Colindale, U.K.; 2 strains). Eight strains (the F-strains) were purchased from Mobidiag Ltd., Helsinki, Finland.

E. coli ATCC25922 [10] = conditions: E. coli ATCC25922
Description: as §3, §4

K. pneumoniae ATCC13883 [11] = conditions: K. pneumoniae ATCC13883
Description: as §3, §4

E. cloacae ATCC23355 [12] = assay: E-test MIC with or without NAB7061 (4 μg/ml), Mueller-Hinton agar; type: cell-based, Enterobacter cloacae
Description: as §3, §4

[13] = tested on: E. coli (ATCC25922 and IH3080), K. pneumoniae ATCC13883, and E. cloacae ATCC23355; assay: E-test sensitization by NAB7061, range over the tested strains; type: cell-based; conditions: four tested strains
Description: as §3

## OA-Thr-DSer-cy[Dab-Dab-DPhe-Thr-Dab-Dab-Thr-] [NAB 734]
[1]; 4 μg
  growth inhibition around a well: 38 square millimeters and 57 square millimeters
[1]; 10 μg
  growth inhibition around a well: 95 square millimeters and 79 square millimeters
E. coli IH3080 [2]
  growth inhibition around a well: 177 square millimeters
C. freundii ATCC8090; 4 μg
  growth inhibition around a well: 133 square millimeters
C. freundii ATCC8090; 10 μg
  growth inhibition around a well: 177 square millimeters
[3]; rifampin 0 μg/ml
  growth inhibition around a well in the presence of rifampin: 13 square millimeters
[3]; rifampin 0.3 μg/ml
  growth inhibition around a well in the presence of rifampin: 20 square millimeters
P. mirabilis ATCC29906; 4 μg
  growth inhibition around a well: 0 square millimeters
P. mirabilis ATCC29906; 10 μg
  growth inhibition around a well: 0 square millimeters
K. pneumoniae CCUG45421; 4 μg
  growth inhibition around a well: 64 square millimeters
K. pneumoniae CCUG45421; 10 μg
  growth inhibition around a well: 104 square millimeters
K. pneumoniae ATCC13883 [4]; 4 μg
  growth inhibition around a well: 64 square millimeters
K. pneumoniae ATCC13883 [4]; 10 μg
  growth inhibition around a well: 113 square millimeters
E. coli ATCC25922 [5]; 4 μg
  growth inhibition around a well: 133 square millimeters
E. coli ATCC25922 [5]; 10 μg
  growth inhibition around a well: 177 square millimeters
E. cloacae ATCC23355 [6]; 4 μg
  growth inhibition around a well: 133 square millimeters
E. cloacae ATCC23355 [6]; 10 μg
  growth inhibition around a well: 177 square millimeters
S. aureus ATCC 25923; 4 μg
  growth inhibition around a well: 0 square millimeters
S. aureus ATCC 25923; 10 μg
  growth inhibition around a well: 0 square millimeters
S. marcescens ATCC8100; 4 μg
  growth inhibition around a well: 0 square millimeters
S. marcescens ATCC8100; 10 μg
  growth inhibition around a well: 0 square millimeters
A. baumannii ATCC 19606; rifampin 0 μg/ml
  growth inhibition around a well in the presence of rifampin: 38 square millimeters
A. baumannii ATCC 19606; rifampin 0.1 μg/ml
  growth inhibition around a well in the presence of rifampin: 201 square millimeters
A. baumannii ATCC 19606; rifampin 0.3 μg/ml
  growth inhibition around a well in the presence of rifampin: 283 square millimeters
E. coli IH3080 [7]; rifampin 0 μg/ml
  growth inhibition around a well in the presence of rifampin: 113 square millimeters
E. coli IH3080 [7]; rifampin 0.1 μg/ml
  growth inhibition around a well in the presence of rifampin: 154 square millimeters
E. coli IH3080 [7]; rifampin 1.0 μg/ml
  growth inhibition around a well in the presence of rifampin: 201 square millimeters
K. oxytoca ATCC13182; 4 μg
  growth inhibition around a well: 95 square millimeters
K. oxytoca ATCC13182; 10 μg
  growth inhibition around a well: 143 square millimeters
[8]; 4 μg
  growth inhibition around a well: 13 square millimeters
[8]; 10 μg
  growth inhibition around a well: 50 square millimeters

## CC[C@H]1OC(=O)[C@H](C)[C@@H](O[C@H]2C[C@@](C)(OC)[C@@H](O)[C@H](C)O2)[C@H](C)[C@@H](O[C@@H]2O[C@H](C)C[C@H](N(C)C)[C@H]2O)[C@](C)(O)C[C@@H](C)C(=O)[C@H](C)[C@@H](O)[C@]1(C)O [Erythromycin]
E. coli IH3080 (K1:O18); 4.5 h postinfection ([…] after treatment), 5 mg/kg subcutaneous
  CFU counts in peritoneal fluid: 8.9 (±6.4)×10^6 per ml
E. coli IH3080 (K1:O18); from 1 h to 4.5 h postinfection
  factor by which the bacterial count increased: 12
E. coli IH3080 [9]
  Sensitization factor to antibiotic (MIC without / with 4 μg/ml of NAB 7061): 32-42
E. coli ATCC25922 [10]
  Sensitization factor to antibiotic (MIC without / with 4 μg/ml of NAB 7061): 32-48
K. pneumoniae ATCC13883 [11]
  Sensitization factor to antibiotic (MIC without / with 4 μg/ml of NAB 7061): 24-48
E. cloacae ATCC23355 [12]
  Sensitization factor to antibiotic (MIC without / with 4 μg/ml of NAB 7061): 21-43
[13]
  Sensitization factor to antibiotic at 4 μg/ml of NAB7061, range over the tested strains: 21-48
